{"source": "patent US20030181527A1", "about": "“Novel formulations of alpha-2,4-disulfophenyl-n-tert-butylnitrone” (priority 2000, published 2003)", "experiment_in_all_cases": "Antimicrobial efficacy (European Pharmacopoeia 2000, Chapter 5.1.3)", "assay_type_in_all_cases": "cell-based", "key": {"A. niger": {"tested_on": "A. niger", "conditions": "400 mg/ml, <1 min", "protocol": "(§1) The antimicrobial efficacy was tested for three different solutions:\n(§2) i) α-(2,4-disulfophenyl)-N-tert-butylnitrone disodium salt, 10 mg/ml;\n(§3) ii) α-(2,4-disulfophenyl)-N-tert-butylnitrone disodium salt, 400 mg/ml; and\n(§4) iii) a carbonate buffer control.\n(§5) The tests were performed according to European Pharmacopoeia 2000, Chapter 5.1.3, pages 259 to 260. Seven 10 ml vials were inoculated, one per test organism. During the tests, the vials were stored at controlled room temperature and protected from light. At different time intervals, samples were withdrawn and after appropriate dilutions the numbers of viable microorganisms (colony forming units per ml, CFU/ml) were determined using standard plate count procedures."}, "Ps. aeruginosa": {"tested_on": "Ps. aeruginosa", "protocol": "as §1, §2, §3, §4, §5"}, "C. albicans": {"tested_on": "C. albicans", "protocol": "as §1, §2, §3, §4, §5"}, "Bur. cepacia": {"tested_on": "Bur. cepacia", "protocol": "as §1, §2, §3, §4, §5"}}, "data": [{"smiles": "CC(C)(C)[N+]([O-])=Cc1ccc(S(=O)(=O)[O-])cc1S(=O)(=O)[O-].[Na+].[Na+]", "note": "[α-(2,4-disulfophenyl)-N-tert-butylnitrone disodium salt]", "values": [{"measurement": "Number of CFUs per ml - Time after Inoculation", "setting": "A. niger", "result": "1.0 × 10^5 CFUs per ml"}, {"measurement": "Number of CFUs per ml - Time after Inoculation", "setting": "Ps. aeruginosa; 10 mg/ml, 6 h", "result": "4.0 × 10^4 CFUs per ml"}, {"measurement": "Number of CFUs per ml - Time after Inoculation", "setting": "Ps. aeruginosa; 10 mg/ml, 24 h", "result": "4.0 × 10^2 CFUs per ml"}, {"measurement": "Number of CFUs per ml - Time after Inoculation", "setting": "Ps. aeruginosa; 10 mg/ml, 48 h", "result": "3.5 × 10^2 CFUs per ml"}, {"measurement": "Number of CFUs per ml - Time after Inoculation", "setting": "Ps. aeruginosa; 10 mg/ml, 7 days", "result": "≦10 CFUs per ml"}, {"measurement": "Number of CFUs per ml - Time after Inoculation", "setting": "Ps. aeruginosa; 10 mg/ml, 14 days", "result": "<1", "unit": "CFUs per ml"}, {"measurement": "Number of CFUs per ml - Time after Inoculation", "setting": "Ps. aeruginosa; 10 mg/ml, 21 days", "result": "<1", "unit": "CFUs per ml"}, {"measurement": "Number of CFUs per ml - Time after Inoculation", "setting": "Ps. aeruginosa; 10 mg/ml, 28 days", "result": "<1", "unit": "CFUs per ml"}, {"measurement": "Number of CFUs per ml - Time after Inoculation", "setting": "Ps. aeruginosa; 10 mg/ml, <1 min", "result": "1.5 × 10^6 CFUs per ml"}, {"measurement": "Number of CFUs per ml - Time after Inoculation", "setting": "Ps. aeruginosa; 400 mg/ml, 6 h", "result": "1.4 × 10^1 CFUs per ml"}, {"measurement": "Number of CFUs per ml - Time after Inoculation", "setting": "Ps. aeruginosa; 400 mg/ml, 24 h", "result": "<1", "unit": "CFUs per ml"}, {"measurement": "Number of CFUs per ml - Time after Inoculation", "setting": "Ps. aeruginosa; 400 mg/ml, 48 h", "result": "<1", "unit": "CFUs per ml"}, {"measurement": "Number of CFUs per ml - Time after Inoculation", "setting": "Ps. aeruginosa; 400 mg/ml, 7 days", "result": "<1", "unit": "CFUs per ml"}, {"measurement": "Number of CFUs per ml - Time after Inoculation", "setting": "Ps. aeruginosa; 400 mg/ml, 14 days", "result": "<1", "unit": "CFUs per ml"}, {"measurement": "Number of CFUs per ml - Time after Inoculation", "setting": "Ps. aeruginosa; 400 mg/ml, 21 days", "result": "<1", "unit": "CFUs per ml"}, {"measurement": "Number of CFUs per ml - Time after Inoculation", "setting": "Ps. aeruginosa; 400 mg/ml, 28 days", "result": "<1", "unit": "CFUs per ml"}, {"measurement": "Number of CFUs per ml - Time after Inoculation", "setting": "Ps. aeruginosa; 400 mg/ml, <1 min", "result": "1.1 × 10^4 CFUs per ml"}, {"measurement": "Reduction in colony forming units per ml (CFU/ml)", "setting": "Ps. aeruginosa; 400 mg/ml, within 6 hours", "result": "≥ 10^3 fold"}, {"measurement": "Number of CFUs per ml - Time after Inoculation", "setting": "C. albicans; 10 mg/ml, 6 h", "result": "7.0 × 10^5 CFUs per ml"}, {"measurement": "Number of CFUs per ml - Time after Inoculation", "setting": "C. albicans; 10 mg/ml, 24 h", "result": "6.5 × 10^5 CFUs per ml"}, {"measurement": "Number of CFUs per ml - Time after Inoculation", "setting": "C. albicans; 10 mg/ml, 48 h", "result": "6.5 × 10^5 CFUs per ml"}, {"measurement": "Number of CFUs per ml - Time after Inoculation", "setting": "C. albicans; 10 mg/ml, 7 days", "result": "<10", "unit": "CFUs per ml"}, {"measurement": "Number of CFUs per ml - Time after Inoculation", "setting": "C. albicans; 10 mg/ml, 14 days", "result": "<1", "unit": "CFUs per ml"}, {"measurement": "Number of CFUs per ml - Time after Inoculation", "setting": "C. albicans; 10 mg/ml, 21 days", "result": "<1", "unit": "CFUs per ml"}, {"measurement": "Number of CFUs per ml - Time after Inoculation", "setting": "C. albicans; 10 mg/ml, 28 days", "result": "<1", "unit": "CFUs per ml"}, {"measurement": "Number of CFUs per ml - Time after Inoculation", "setting": "C. albicans; 10 mg/ml, <1 min", "result": "6.5 × 10^5 CFUs per ml"}, {"measurement": "Number of CFUs per ml - Time after Inoculation", "setting": "C. albicans; 400 mg/ml, 6 h", "result": "3.1 × 10^4 CFUs per ml"}, {"measurement": "Number of CFUs per ml - Time after Inoculation", "setting": "C. albicans; 400 mg/ml, 24 h", "result": "6.1 × 10^3 CFUs per ml"}, {"measurement": "Number of CFUs per ml - Time after Inoculation", "setting": "C. albicans; 400 mg/ml, 48 h", "result": "<1", "unit": "CFUs per ml"}, {"measurement": "Number of CFUs per ml - Time after Inoculation", "setting": "C. albicans; 400 mg/ml, 7 days", "result": "<1", "unit": "CFUs per ml"}, {"measurement": "Number of CFUs per ml - Time after Inoculation", "setting": "C. albicans; 400 mg/ml, 14 days", "result": "<1", "unit": "CFUs per ml"}, {"measurement": "Number of CFUs per ml - Time after Inoculation", "setting": "C. albicans; 400 mg/ml, 21 days", "result": "<1", "unit": "CFUs per ml"}, {"measurement": "Number of CFUs per ml - Time after Inoculation", "setting": "C. albicans; 400 mg/ml, 28 days", "result": "<1", "unit": "CFUs per ml"}, {"measurement": "Number of CFUs per ml - Time after Inoculation", "setting": "C. albicans; 400 mg/ml, <1 min", "result": "1.6 × 10^5 CFUs per ml"}, {"measurement": "Number of CFUs per ml - Time after Inoculation", "setting": "Bur. cepacia; 10 mg/ml, 6 h", "result": "1.5 × 10^3 CFUs per ml"}, {"measurement": "Number of CFUs per ml - Time after Inoculation", "setting": "Bur. cepacia; 10 mg/ml, 24 h", "result": "<1", "unit": "CFUs per ml"}, {"measurement": "Number of CFUs per ml - Time after Inoculation", "setting": "Bur. cepacia; 10 mg/ml, 48 h", "result": "<1", "unit": "CFUs per ml"}, {"measurement": "Number of CFUs per ml - Time after Inoculation", "setting": "Bur. cepacia; 10 mg/ml, 7 days", "result": "<1", "unit": "CFUs per ml"}, {"measurement": "Number of CFUs per ml - Time after Inoculation", "setting": "Bur. cepacia; 10 mg/ml, 14 days", "result": "<1", "unit": "CFUs per ml"}, {"measurement": "Number of CFUs per ml - Time after Inoculation", "setting": "Bur. cepacia; 10 mg/ml, 21 days", "result": "<1", "unit": "CFUs per ml"}, {"measurement": "Number of CFUs per ml - Time after Inoculation", "setting": "Bur. cepacia; 10 mg/ml, 28 days", "result": "<1", "unit": "CFUs per ml"}, {"measurement": "Number of CFUs per ml - Time after Inoculation", "setting": "Bur. cepacia; 10 mg/ml, <1 min", "result": "3.5 × 10^5 CFUs per ml"}, {"measurement": "Number of CFUs per ml - Time after Inoculation", "setting": "Bur. cepacia; 400 mg/ml, 6 h", "result": "8.7 × 10^1 CFUs per ml"}, {"measurement": "Number of CFUs per ml - Time after Inoculation", "setting": "Bur. cepacia; 400 mg/ml, 24 h", "result": "<1", "unit": "CFUs per ml"}, {"measurement": "Number of CFUs per ml - Time after Inoculation", "setting": "Bur. cepacia; 400 mg/ml, 48 h", "result": "<1", "unit": "CFUs per ml"}, {"measurement": "Number of CFUs per ml - Time after Inoculation", "setting": "Bur. cepacia; 400 mg/ml, 7 days", "result": "<1", "unit": "CFUs per ml"}, {"measurement": "Number of CFUs per ml - Time after Inoculation", "setting": "Bur. cepacia; 400 mg/ml, 14 days", "result": "<1", "unit": "CFUs per ml"}, {"measurement": "Number of CFUs per ml - Time after Inoculation", "setting": "Bur. cepacia; 400 mg/ml, 21 days", "result": "<1", "unit": "CFUs per ml"}, {"measurement": "Number of CFUs per ml - Time after Inoculation", "setting": "Bur. cepacia; 400 mg/ml, 28 days", "result": "<1", "unit": "CFUs per ml"}, {"measurement": "Number of CFUs per ml - Time after Inoculation", "setting": "Bur. cepacia; 400 mg/ml, <1 min", "result": "1.1 × 10^5 CFUs per ml"}, {"measurement": "Reduction in colony forming units per ml (CFU/ml)", "setting": "Bur. cepacia; 400 mg/ml, within 6 hours", "result": "≥ 10^3 fold"}]}]}
